Test system: melanoma
Assay: Immunotherapy response of melanoma patients by standard clinical imaging criteria (CT scan change), tumors classed by HSATII RNA-ISH
Assay type: in vivo, human
Protocol: All combined RNA-ISH and IHC assays are performed as follows: Monoclonal antibodies for immune cells (T-cell subsets CD3, CD4, CD8, FOXP3; Macrophages CD68, CD163; B-cells CD20; NK cells CD16, CD56) and RNA ISH probes for repeat RNAs (HSATII, HERV-K, HERV-H, LINE1) were sequentially applied on a single histologic slide, and contrasting chromogens were used to visualize the antibody: brown (diaminobenzidine [DAB]) for immune marker and RNA: red (fast red) for repeat RNA. Paraffin-embedded sections were mounted on coated slides and were placed in an oven for 60 minutes at 60° C. The sequential double-staining protocol was performed using the Leica Bond Rx automated immunostainer. […]
As shown herein, HSATII low melanomas respond to immunotherapy including anti-PD1/PDL1 and anti-CTLA4 therapies (FIG. 5). Briefly, a cohort of 20 melanoma patients who received either anti-PD1/PDL1 or anti-CTLA4 therapy that had formalin fixed paraffin embedded (FFPE) tissue were evaluated with HSATII RNA-ISH combined with CD3 T cell IHC assay. Tumors were evaluated for HSATII RNA levels (HIGH vs LOW) and CD3 T cell infiltrates quantitated by manual counting of cells in a 400×200 micron area by a pathologist. […] Tumors were evaluated for HSATII RNA levels (HIGH vs LOW) and CD163 macrophage infiltrates quantitated by manual counting of cells in a 400×200 micron area by a pathologist.

| Substance | immunotherapy response as determined by standard clinical imaging criteria (CT scan change) (HSATII HIGH tumors (low CD3 T-cells)) | immunotherapy response as determined by standard clinical imaging criteria (CT scan change) (HSATII LOW tumors (high CD3 T-cells)) |
| --- | --- | --- |
| nivolumab | non-responder |  |
| ipilimumab |  | responder |

From US20210213041A1, “REPEAT RNA AS BIOMARKERS OF TUMOR IMMUNE RESPONSE” (The General Hospital Corporation, priority 2018, published 2021)
